ChEMBL document CHEMBL1201862, “PubChem BioAssay data set” (2004)
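Step 1: Grow cells in 96-well plates. Step 2: Expose to compound for 48 hours at 5 concentrations. Step 3: Interpolate endpoints linearly; if unreached, use highest concentration. GI50 marks 50% less growth.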 Active and inactive are the calls of the source. No stated cut-off is given here; in the data, active = GI50 up to about 1.1 µM and inactive = higher.

Key:
Test in all cases: growth of human tumour cells (NCI), 48 h
A549 = tested on: A549
ACHN = tested on: ACHN
HCT-15 = tested on: HCT-15
HOP-62 = tested on: HOP-62
HOP-92 = tested on: HOP-92
K562 = tested on: K562
M14 = tested on: M14
MDA-MB-231 = tested on: MDA-MB-231
NCI-H522 = tested on: NCI-H522
RPMI-8226 = tested on: RPMI-8226
RXF 393 = tested on: RXF 393
SK-MEL-2 = tested on: SK-MEL-2
SK-OV-3 = tested on: SK-OV-3
SNB-19 = tested on: SNB-19
SNB-75 = tested on: SNB-75
UO-31 = tested on: UO-31
SR = tested on: SR

Compound | GI50 (A549) | GI50 (ACHN) | GI50 (HCT-15) [µM] | GI50 (HOP-62) | GI50 (HOP-92) | GI50 (K562) | GI50 (M14) | GI50 (MDA-MB-231) | GI50 (NCI-H522) | GI50 (RPMI-8226) | GI50 (RXF 393) | GI50 (SK-MEL-2) | GI50 (SK-OV-3) | GI50 (SNB-19) | GI50 (SNB-75) | GI50 (UO-31) | GI50 (SR)
Nc1ccccc1C(=O)NNC(=O)c1ccccc1N | > 100 µM (inactive) | > 100 µM (inactive) | > 100 | > 100 µM (inactive) | > 100 µM (inactive) | > 100 µM (inactive) | > 100 µM (inactive) | > 100 µM (inactive) | > 100 µM (inactive) | > 100 µM (inactive) | > 100 µM (inactive) | > 100 µM (inactive) | > 100 µM (inactive) | > 100 µM (inactive) | 35.5 µM (inactive) | > 100 µM (inactive) | 
CN(C)Cc1nsc(N(C)C)n1 | > 100 µM (inactive) | > 100 µM (inactive) | > 100 | > 100 µM (inactive) | > 100 µM (inactive) | > 100 µM (inactive) | > 100 µM (inactive) | > 100 µM (inactive) | > 100 µM (inactive) | > 100 µM (inactive) | > 100 µM (inactive) | > 100 µM (inactive) | > 100 µM (inactive) | > 100 µM (inactive) | > 100 µM (inactive) | > 100 µM (inactive) | 
Cc1ccc(S[C@@H](C)[C@@](O)(CF)CN(Cc2ccccc2)C(=O)C(F)(F)F)cc1 | 14.8 µM (inactive) | 22.1 µM (inactive) | 17.1 |  | 4.65 µM (inactive) |  | 17.1 µM (inactive) | 22.4 µM (inactive) | > 100 µM (inactive) |  |  | 18.5 µM (inactive) |  | 23.4 µM (inactive) |  | 16.6 µM (inactive) | 
CCOC(=O)c1c[nH]c2cc3c(cc2c1=O)CCS3 | > 100 µM (inactive) | > 100 µM (inactive) | > 100 | > 100 µM (inactive) | > 100 µM (inactive) | > 100 µM (inactive) | > 100 µM (inactive) | > 100 µM (inactive) | > 100 µM (inactive) | > 100 µM (inactive) | 57.8 µM (inactive) | > 100 µM (inactive) | > 100 µM (inactive) | > 100 µM (inactive) | > 100 µM (inactive) | 83.9 µM (inactive) | 
COC(=O)c1nsc(OC)c1Cl | > 100 µM (inactive) |  | > 100 | > 100 µM (inactive) |  | > 100 µM (inactive) | > 100 µM (inactive) | > 100 µM (inactive) |  | > 100 µM (inactive) | > 100 µM (inactive) |  | > 100 µM (inactive) | > 100 µM (inactive) | > 100 µM (inactive) | > 100 µM (inactive) | 
CCC1OC2C(CC=C(C)C)=C3OC(C)(O)C(C)(CC)C(=O)C3=C3OC(=O)C=C1C32 (stereo not given) | 22.6 µM (inactive) | 26.3 µM (inactive) | 32.4 |  | 21.7 µM (inactive) | 26 µM (inactive) | 27.7 µM (inactive) | 15.5 µM (inactive) |  | 19.2 µM (inactive) |  | 17.3 µM (inactive) | > 100 µM (inactive) | 27.4 µM (inactive) |  | 15.3 µM (inactive) | 
C=C(C)C1CCC2=CC(CC3(C)OC3C3=CC(C(=O)OC)=C(C1)O3)OC2=O (stereo not given) | > 100 µM (inactive) | > 100 µM (inactive) | > 100 | > 100 µM (inactive) | 88.3 µM (inactive) | > 100 µM (inactive) | > 100 µM (inactive) | 93.3 µM (inactive) | 85.9 µM (inactive) |  | 52.5 µM (inactive) | > 100 µM (inactive) |  | > 100 µM (inactive) | 56.2 µM (inactive) | > 100 µM (inactive) | 83.2 µM (inactive)
CCCCCCCC/C=C\CCCCCCC/C=C1\C[C@](/C=C/C(=O)OC)(CO)OC1=O | 4.3 µM (inactive) | 2.19 µM (inactive) | 2.75 | 1.86 µM (inactive) | 2.94 µM (inactive) | 0.662 µM (active) | 1.62 µM (inactive) | 1.94 µM (inactive) | 2.58 µM (inactive) |  | 5.28 µM (inactive) | 8.41 µM (inactive) | 6.3 µM (inactive) | 4.54 µM (inactive) | 1.92 µM (inactive) | 1.15 µM (inactive) | 2.74 µM (inactive)
C=CCn1c(-c2ccc([N+](=O)[O-])cc2)csc1=N | 35.5 µM (inactive) | 83.2 µM (inactive) | 64.7 | 78.2 µM (inactive) | 47.5 µM (inactive) | 9.59 µM (inactive) | 56.9 µM (inactive) | 16.8 µM (inactive) | 36.6 µM (inactive) |  | 7.43 µM (inactive) | 91.2 µM (inactive) | 54.7 µM (inactive) | > 100 µM (inactive) | 19.5 µM (inactive) | 37.2 µM (inactive) | 
Cc1ccc(S(=O)(=O)N2CCCSCCSCCCSCC2)cc1 | > 100 µM (inactive) |  | > 100 | > 100 µM (inactive) | > 100 µM (inactive) | > 100 µM (inactive) | > 100 µM (inactive) | > 100 µM (inactive) | > 100 µM (inactive) |  |  |  | > 100 µM (inactive) | > 100 µM (inactive) | 86.7 µM (inactive) | > 100 µM (inactive) | > 100 µM (inactive)
CCCc1c(OC)c(=O)c2c(OC)cc(OC)c3c4c(OC)cc(OC)c5c(=O)c(OC)c(CCC)c(c1c23)c54 | 19.4 µM (inactive) | 15.8 µM (inactive) | 12.8 | 18 µM (inactive) | 10.9 µM (inactive) |  | 16.9 µM (inactive) | 4.38 µM (inactive) |  |  | 20.7 µM (inactive) | 22 µM (inactive) | 15.5 µM (inactive) | 19.8 µM (inactive) | 7.23 µM (inactive) | 15.5 µM (inactive) | 
O=C1C[C@H]2[C@@H](O1)[C@@H](O)CN1C(=O)c3ccccc3[C@H]21 | > 100 µM (inactive) | > 100 µM (inactive) | > 100 | > 100 µM (inactive) |  | > 100 µM (inactive) | > 100 µM (inactive) | > 100 µM (inactive) | > 100 µM (inactive) | > 100 µM (inactive) | > 100 µM (inactive) | > 100 µM (inactive) | > 100 µM (inactive) | > 100 µM (inactive) | > 100 µM (inactive) | > 100 µM (inactive) | > 100 µM (inactive)
CC(=O)CC(O)(C(F)(F)Cl)C(F)(Cl)Cl (stereo not given) | > 10 µM (inactive) | > 10 µM (inactive) | > 10 | > 10 µM (inactive) | > 10 µM (inactive) | > 10 µM (inactive) | > 10 µM (inactive) | > 10 µM (inactive) | > 10 µM (inactive) |  | > 10 µM (inactive) | > 10 µM (inactive) | > 10 µM (inactive) | > 10 µM (inactive) | > 10 µM (inactive) | > 10 µM (inactive) | 
CCC1(CC)SCc2nc3ccccc3n21 | 35.9 µM (inactive) | 30.1 µM (inactive) | 36.2 | 37.1 µM (inactive) | 18 µM (inactive) | 18.9 µM (inactive) | 26.5 µM (inactive) | 29.6 µM (inactive) | 37.6 µM (inactive) | 24.9 µM (inactive) | 32.2 µM (inactive) | 27.5 µM (inactive) | 38.5 µM (inactive) | 53.2 µM (inactive) | 12.6 µM (inactive) | 35.4 µM (inactive) | 
COc1cc2oc(=O)cc(C)c2cc1OC | > 100 µM (inactive) | > 100 µM (inactive) | > 100 | > 100 µM (inactive) |  | > 100 µM (inactive) | > 100 µM (inactive) | > 100 µM (inactive) |  | > 100 µM (inactive) |  | > 100 µM (inactive) | > 100 µM (inactive) | > 100 µM (inactive) | > 100 µM (inactive) | 66.7 µM (inactive) | > 100 µM (inactive)
Cc1cccc(N/C(=C(/C(Cl)=C(Cl)Cl)[N+](=O)[O-])n2nnc3ccccc32)c1 | 18 µM (inactive) | 24.3 µM (inactive) | 18.4 | 18 µM (inactive) |  | 35 µM (inactive) | 21.9 µM (inactive) | 13.3 µM (inactive) |  | 13.7 µM (inactive) |  | 19.1 µM (inactive) | 21.3 µM (inactive) | 18.2 µM (inactive) |  | 16.5 µM (inactive) | 
CCN(CC)/C(SCc1ccccc1)=C(\C(Cl)=C(Cl)Cl)[N+](=O)[O-] | 16.6 µM (inactive) | 16.3 µM (inactive) | 25.5 | 22 µM (inactive) |  | 25.8 µM (inactive) | 15.9 µM (inactive) | 27.1 µM (inactive) | 16.6 µM (inactive) | 14.9 µM (inactive) | 13.1 µM (inactive) | 21.7 µM (inactive) | 39.6 µM (inactive) | 28.9 µM (inactive) |  | 18.3 µM (inactive) | 17.8 µM (inactive)
COC(=O)c1ccc(C)cc1CC1Cc2cc(C)ccc2C1=O (stereo not given) | > 100 µM (inactive) | > 100 µM (inactive) | > 100 | > 100 µM (inactive) |  | > 100 µM (inactive) | > 100 µM (inactive) | > 100 µM (inactive) | > 100 µM (inactive) | > 100 µM (inactive) |  | > 100 µM (inactive) | > 100 µM (inactive) | > 100 µM (inactive) | > 100 µM (inactive) | > 100 µM (inactive) | > 100 µM (inactive)
CCOC(=O)c1c(O)cc(=O)[nH]c1N1CCOCC1 | > 100 µM (inactive) | > 100 µM (inactive) | > 100 | > 100 µM (inactive) | > 100 µM (inactive) | > 100 µM (inactive) | > 100 µM (inactive) |  |  | > 100 µM (inactive) |  | > 100 µM (inactive) | > 100 µM (inactive) | > 100 µM (inactive) | > 100 µM (inactive) | > 100 µM (inactive) | > 100 µM (inactive)
Cc1ncc([N+](=O)[O-])n1CCNC(=O)Cn1ccnc1[N+](=O)[O-] | > 100 µM (inactive) | > 100 µM (inactive) | > 100 | > 100 µM (inactive) |  | > 100 µM (inactive) | > 100 µM (inactive) | > 100 µM (inactive) | > 100 µM (inactive) |  |  | > 100 µM (inactive) | > 100 µM (inactive) | > 100 µM (inactive) | > 100 µM (inactive) | > 100 µM (inactive) | > 100 µM (inactive)
